Columns and labels:
ΔF508-CFTR [1] = target: T1, ΔF508-CFTR (Homo sapiens, UniProt P13569, DEL508-508); assay: CFTR cell surface levels using HRP-tagged ΔF508-CFTR expressing CFBE cells, intrinsic corrector capacity; type: cell-based; conditions: for EC50: read-out: EC50
T1 construct: host or cells: CFBE41o-, doxycycline-inducible
Summary of the method: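 Here the cells express ΔF508-CFTR with horseradish peroxidase inserted in extracellular loop 4, so only rescued channel at the surface gives luminescent signal. Compounds act on their own, 20 h at the reduced temperature of 33 °C; values are percent activity relative to DMSO and a 3 μM corrector.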

ΔF508-CFTR [2] = target: T1, ΔF508-CFTR; assay: CFTR cell surface levels using HRP-tagged ΔF508-CFTR expressing CFBE cells, in the presence of a co-corrector; type: cell-based; conditions: HRP-tagged ΔF508-CFTR expressing CFBE cells, in the presence of 3 μM co-corrector; for EC50: read-out: EC50
Summary of the method: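 Cells were seeded with 0.5 μg/mL doxycycline and held 68 h at 37 °C. Test compounds plus 3 μM co-corrector (final 0.1% DMSO) were then added for 20 h at 33 °C. Washed cells received HRP substrate, and luminescence was normalized between DMSO and 3 μM co-corrector controls.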

[3] = HRP-tagged ΔF508-CFTR expressing CFBE cells, intrinsic corrector capacity (no co-corrector), 33° C., 20 hours
[4] = HRP-tagged ΔF508-CFTR CFBE41o- cells, compounds alone (intrinsic corrector capacity), 20 hours at 33° C., positive control 3 μM corrector
[5] = HRP-tagged ΔF508-CFTR CFBE41o- cells, compounds alone (intrinsic corrector capacity), 20 hours at 33° C.

T1 sequence (P13569 with tags, fused parts or gaps DEL508-508): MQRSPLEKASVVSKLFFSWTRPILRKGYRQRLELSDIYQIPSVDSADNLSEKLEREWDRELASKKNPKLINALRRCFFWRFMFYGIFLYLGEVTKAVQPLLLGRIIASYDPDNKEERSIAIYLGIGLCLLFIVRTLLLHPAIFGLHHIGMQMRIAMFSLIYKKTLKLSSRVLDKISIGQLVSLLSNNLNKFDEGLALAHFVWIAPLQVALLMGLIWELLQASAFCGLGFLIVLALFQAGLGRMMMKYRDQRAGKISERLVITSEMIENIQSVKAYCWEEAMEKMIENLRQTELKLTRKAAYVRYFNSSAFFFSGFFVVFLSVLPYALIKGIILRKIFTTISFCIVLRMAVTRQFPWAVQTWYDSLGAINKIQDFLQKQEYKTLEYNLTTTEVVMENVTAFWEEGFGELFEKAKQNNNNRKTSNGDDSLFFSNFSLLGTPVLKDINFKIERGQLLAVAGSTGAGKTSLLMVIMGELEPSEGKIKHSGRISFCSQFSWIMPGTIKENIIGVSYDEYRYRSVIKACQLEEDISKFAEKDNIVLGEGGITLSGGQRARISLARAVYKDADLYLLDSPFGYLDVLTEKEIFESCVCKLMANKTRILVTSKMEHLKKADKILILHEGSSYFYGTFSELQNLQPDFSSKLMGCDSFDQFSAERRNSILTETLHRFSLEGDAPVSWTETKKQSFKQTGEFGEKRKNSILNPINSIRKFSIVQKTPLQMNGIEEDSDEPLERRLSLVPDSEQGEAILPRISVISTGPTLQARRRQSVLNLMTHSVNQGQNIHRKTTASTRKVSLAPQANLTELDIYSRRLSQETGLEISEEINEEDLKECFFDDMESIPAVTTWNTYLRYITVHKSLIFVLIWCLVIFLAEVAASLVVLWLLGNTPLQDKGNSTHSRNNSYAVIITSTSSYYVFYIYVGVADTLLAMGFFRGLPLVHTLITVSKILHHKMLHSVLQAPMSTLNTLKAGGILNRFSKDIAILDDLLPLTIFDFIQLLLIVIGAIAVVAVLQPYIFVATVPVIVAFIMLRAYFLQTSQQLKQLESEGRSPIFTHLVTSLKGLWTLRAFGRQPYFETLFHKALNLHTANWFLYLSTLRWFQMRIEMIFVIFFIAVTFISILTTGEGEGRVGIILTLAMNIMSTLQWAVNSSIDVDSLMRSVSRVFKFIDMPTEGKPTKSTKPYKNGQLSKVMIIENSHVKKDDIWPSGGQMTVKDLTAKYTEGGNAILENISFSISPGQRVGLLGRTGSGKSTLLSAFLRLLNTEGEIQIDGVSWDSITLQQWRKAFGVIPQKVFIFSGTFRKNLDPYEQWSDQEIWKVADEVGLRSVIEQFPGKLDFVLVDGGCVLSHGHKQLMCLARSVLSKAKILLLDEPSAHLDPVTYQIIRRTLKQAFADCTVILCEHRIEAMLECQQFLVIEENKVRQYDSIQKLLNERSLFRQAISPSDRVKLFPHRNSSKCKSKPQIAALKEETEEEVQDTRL

Structure (SMILES)	% Activation (ΔF508-CFTR [1]; [3])	EC50 (ΔF508-CFTR [1]; [3])	% Activation (ΔF508-CFTR [2])	EC50 (ΔF508-CFTR [2])	% Activation (ΔF508-CFTR [1]; [4])	EC50 (ΔF508-CFTR [1]; [5])
O=C(O)c1cc(OCCN2CCCCC2)c2c(C3CCC3)nn(-c3ccccc3)c2n1 [compound 639, 3-cyclobutyl-1-phenyl-4-[2-(piperidin-1-yl)ethoxy]-1H-pyrazolo[3,4-b]pyridine-6-carboxylic acid]	96.54%	2210 nM	261.7%	1670 nM		
COCC1CCN(c2cc(C(=O)O)nc3c2c(C(C)C)nn3-c2cc(C)nc(C)c2)CC1 [compound 677, 1-(2,6-dimethylpyridin-4-yl)-4-[4-(methoxymethyl)piperidin-1-yl]-3-(propan-2-yl)-1H-pyrazolo[3,4-b]pyridine-6-carboxylic acid]	67.38%	1570 nM	260.45%	6550 nM		
N#CC1CCN(c2ccc(-c3cc(C(=O)O)nc4c3c([C@H]3C[C@@H](F)C3)nn4-c3ccccc3)cn2)CC1 [compound 432, 4-[6-(4-cyanopiperidin-1-yl)pyridin-3-yl]-3-(cis-3-fluorocyclobutyl)-1-phenyl-1H-pyrazolo[3,4-b]pyridine-6-carboxylic acid]	197.97%	561 nM	388.23%	298 nM		
COCCN(C)c1cc(C(=O)O)nc2c1c(C1CCC1)nn2-c1ccccc1 [compound 422, 3-cyclobutyl-4-[(2-methoxyethyl)(methyl)amino]-1-phenyl-1H-pyrazolo[3,4-b]pyridine-6-carboxylic acid]	131.9%	1620 nM	336.05%	1000 nM		
COC(=O)N1CC(c2nn(C3CCCCC3)c3nc(C(=O)O)cc(-c4cnc(N(C)C)nc4)c23)C1 [compound 166, 1-cyclohexyl-4-[2-(dimethylamino)pyrimidin-5-yl]-3-[1-(methoxycarbonyl)azetidin-3-yl]-1H-pyrazolo[3,4-b]pyridine-6-carboxylic acid]			241.5%	3260 nM	68.01%	3340 nM
CC(C)c1nn(-c2ccc(F)cc2)c2nc(C(=O)O)cc(-c3cnc(N(C)C4CCOCC4)nc3)c12 [compound 280, 1-(4-fluorophenyl)-4-{2-[methyl(oxan-4-yl)amino]pyrimidin-5-yl}-3-(propan-2-yl)-1H-pyrazolo[3,4-b]pyridine-6-carboxylic acid]			440.83%	249 nM	238.6%	485 nM
Cc1nn(-c2ccccc2)c2nc(C(=O)O)cc(N3CCCCC3=O)c12 [compound 150, 3-methyl-4-(2-oxopiperidin-1-yl)-1-phenyl-1H-pyrazolo[3,4-b]pyridine-6-carboxylic acid]			115.3%	> 10000 nM	6.341%	> 10000 nM
CC(C)c1nn(-c2cccc(N(C)C)c2)c2nc(C(=O)O)cc(-c3ccc(N(C)C4CCOCC4)nc3)c12 [compound 189, 1-[3-(dimethylamino)phenyl]-4-{6-[methyl(oxan-4-yl)amino]pyridin-3-yl}-3-(propan-2-yl)-1H-pyrazolo[3,4-b]pyridine-6-carboxylic acid]			590.78%	292 nM	385.02%	514 nM
CC(C)c1nn(-c2ccnc(N3CCCC3)c2)c2nc(C(=O)O)cc(-c3ccc(N4CCC(C#N)CC4)nc3)c12 [compound 369, 4-[6-(4-cyanopiperidin-1-yl)pyridin-3-yl]-3-(propan-2-yl)-1-[2-(pyrrolidin-1-yl)pyridin-4-yl]-1H-pyrazolo[3,4-b]pyridine-6-carboxylic acid]			389.2%	471 nM	251.6%	843 nM
Cc1nn(-c2ccccc2)c2nc(C(=O)O)cc(-c3ccc(N4CCOCC4)cc3Cl)c12 [compound 26, 4-[2-chloro-4-(morpholin-4-yl)phenyl]-3-methyl-1-phenyl-1H-pyrazolo[3,4-b]pyridine-6-carboxylic acid]			258.4%	1090 nM	83.24%	1270 nM
Cc1nn(-c2ccccc2)c2nc(C(=O)O)cc(-c3ccc(N4CC(O)C4)cc3)c12 [compound 124, 4-[4-(3-hydroxyazetidin-1-yl)phenyl]-3-methyl-1-phenyl-1H-pyrazolo[3,4-b]pyridine-6-carboxylic acid]			371.1%	1880 nM	190.5%	3080 nM
O=C(O)c1cc(N2CCC3(C2)CC3(F)F)c2c(C3CCC3)nn(-c3ccccc3)c2n1 (stereo not shown) [compound 423, 3-cyclobutyl-4-(1,1-difluoro-5-azaspiro [2. 4]heptan-5-yl)-1-phenyl-1H-pyrazolo[3,4-b]pyridine-6-carboxylic acid]	113.4%	934 nM	299.25%	920 nM		
CC(C)(C)OC(=O)N1CCCC1c1nn(-c2ccccc2)c2nc(C(=O)O)cc(-c3ccc(N4CCOCC4)nc3)c12 (stereo not shown) [compound 103, 3-[1-(tert-butoxycarbonyl)pyrrolidin-2-yl]-4-[6-(morpholin-4-yl)pyridin-3-yl]-1-phenyl-1H-pyrazolo[3,4-b]pyridine-6-carboxylic acid]			302%	694 nM	115.65%	703 nM
CC(C)c1nn(-c2ccc(F)cc2)c2nc(C(=O)O)cc(N3CCC4(CC3)OCCO4)c12 [compound 782, 4-(1,4-dioxa-8-azaspiro[4.5]decan-8-yl)-1-(4-fluorophenyl)-3-(propan-2-yl)-1H-pyrazolo[3,4-b]pyridine-6-carboxylic acid]	174.4%	673 nM	345.2%	272 nM		
CC(C1CCN(c2cc(C(=O)O)nc3c2c(C2CCC2)nn3-c2ccc(F)cc2)CC1)N1CCOCC1 (stereo not shown) [compound 805, 3-cyclobutyl-1-(4-fluorophenyl)-4-{4-[1-(morpholin-4-yl)ethyl]piperidin-1-yl}-1H-pyrazolo[3,4-b]pyridine-6-carboxylic acid]	364%	72.7 nM	671%	47.4 nM		
COCC1CCN(Cc2cc(C(=O)O)nc3c2c(C2CCC2)nn3-c2ccc(F)cc2)CC1 [compound 859, 3-cyclobutyl-1-(4-fluorophenyl)-4-{[4-(methoxymethyl)piperidin-1-yl]methyl}-1H-pyrazolo[3,4-b]pyridine-6-carboxylic acid]	89.07%	2230 nM	291.4%	2560 nM		
Cc1nn(-c2ccc(F)cc2F)c2nc(C(=O)O)cc(-c3ccc(N4CCOCC4)nc3)c12 [compound 104, 1-(2,4-difluorophenyl)-3-methyl-4-[6-(morpholin-4-yl)pyridin-3-yl]-1H-pyrazolo[3,4-b]pyridine-6-carboxylic acid]			308.55%	1010 nM	130.4%	1240 nM
CC(C)(C)c1nn(C2CCCC2)c2nc(C(=O)O)cc(-c3cnc(N4CCOCC4)nc3)c12 [compound 100, 3-tert-butyl-1-cyclopentyl-4-[2-(morpholin-4-yl)pyrimidin-5-yl]-1H-pyrazolo[3,4-b]pyridine-6-carboxylic acid]			310%	457 nM	115.7%	981 nM
Cc1cccc(-n2nc(C(C)C)c3c(N4CCC5(CC4)CN(C)C(=O)O5)cc(C(=O)O)nc32)c1 [compound 359, 4-(3-methyl-2-oxo-1-oxa-3,8-diazaspiro[4.5]decan-8-yl)-1-(3-methylphenyl)-3-(propan-2-yl)-1H-pyrazolo[3,4-b]pyridine-6-carboxylic acid]			349.55%	2180 nM	142%	2040 nM
COC1CN(CC2CCN(c3cc(C(=O)O)nc4c3c(C3CCC3)nn4-c3ccccc3)CC2)C1 [compound 829, 3-cyclobutyl-4-{4-[(3-methoxyazetidin-1-yl)methyl]piperidin-1-yl}-1-phenyl-1H-pyrazolo[3,4-b]pyridine-6-carboxylic acid]	170.7%	381 nM	411.7%	344 nM		
O=C(O)c1cc(N2CC[C@@H](N3CCOCC3)C2)c2c(C3CCC3)nn(-c3ccccc3)c2n1 [compound 577, 3-cyclobutyl-4-[(3R)-3-(morpholin-4-yl)pyrrolidin-1-yl]-1-phenyl-1H-pyrazolo[3,4-b]pyridine-6-carboxylic acid]	108%	3030 nM	300.47%	1150 nM		
Cc1nn(-c2ccccc2)c2nc(C(=O)O)cc(N3CCN(S(C)(=O)=O)CC3)c12 [compound 146, 4-[4-(methanesulfonyl)piperazin-1-yl]-3-methyl-1-phenyl-1H-pyrazolo[3,4-b]pyridine-6-carboxylic acid]			134.9%	> 10000 nM	8.92%	> 10000 nM

Reference: US9796711B2, “Substituted pyrazolo[3,4-b]pyridin-6-carboxylic acids and method of use” (AbbVie S.àr.l., priority 2015, dated 2017)
